Reference: ChEMBL document CHEMBL5634115, “Exploring novel anticancer pyrazole benzenesulfonamides featuring tail approach strategy as carbonic anhydrase inhibitors” (Eur J Med Chem, 2023)

Key:
SK-MEL-28 = assay: cells; assay type: functional; details: Homo sapiens, time 48 hrs
Description: Growth inhibition of human SK-MEL-28 cells measured after 48 hrs by sulforhodamine B assay

UO-31 [1] = assay: cells; details: Homo sapiens, UO-31, 48 h, read-out: LC50
Description: Cytotoxicity activity against human UO-31 cells assessed as reduction in cell growth measured after 48 hrs by sulforhodamine B assay

HL-60(TB) = assay: cells; assay type: functional; details: Homo sapiens, time 48 hrs
Description: Growth inhibition of human HL-60(TB) cells measured after 48 hrs by sulforhodamine B assay

T47D = assay: cells; details: Homo sapiens, 48 h, read-out: LC50
Description: Cytotoxicity activity against human T47D cells assessed as reduction in cell growth measured after 48 hrs by sulforhodamine B assay

MCF7 [2] = assay: cells; details: Homo sapiens, MCF7, 48 h, read-out: LC50
Description: Cytotoxicity activity against human MCF7 cells assessed as reduction in cell growth measured after 48 hrs by sulforhodamine B assay

OVCAR-5 [3] = assay: cells; details: Homo sapiens, OVCAR-5, 48 h, read-out: LC50
Description: Cytotoxicity activity against human OVCAR-5 cells assessed as reduction in cell growth measured after 48 hrs by sulforhodamine B assay

MOLT-4 = assay: cells; assay type: functional; details: Homo sapiens, time 48 hrs
Description: Cytostatic activity against human MOLT-4 cells assessed as total growth inhibition measured after 48 hrs by sulforhodamine B assay

NCI/ADR-RES = assay: cells; details: Homo sapiens, 48 h, read-out: LC50
Description: Cytotoxicity activity against human NCI/ADR-RES cells assessed as reduction in cell growth measured after 48 hrs by sulforhodamine B assay

HCT-15 = assay: cells; assay type: functional; details: Homo sapiens, time 48 hrs
Description: Growth inhibition of human HCT-15 cells measured after 48 hrs by sulforhodamine B assay

HOP-62 [4] = assay: cells; assay type: functional; details: Homo sapiens, time 48 hrs
Description: Cytostatic activity against human HOP-62 cells assessed as total growth inhibition measured after 48 hrs by sulforhodamine B assay

EKVX [5] = assay: cells; assay type: functional; details: Homo sapiens, time 48 hrs
Description: Cytostatic activity against human EKVX cells assessed as total growth inhibition measured after 48 hrs by sulforhodamine B assay

HOP-92 [6] = assay: cells; details: Homo sapiens, HOP-92, 48 h, read-out: LC50
Description: Cytotoxicity activity against human HOP-92 cells assessed as reduction in cell growth measured after 48 hrs by sulforhodamine B assay

HOP-92 [7] = assay: cells; assay type: functional; details: Homo sapiens, time 48 hrs
Description: Cytostatic activity against human HOP-92 cells assessed as total growth inhibition measured after 48 hrs by sulforhodamine B assay

UO-31 [8] = assay: cells; assay type: functional; details: Homo sapiens, time 48 hrs
Description: Cytostatic activity against human UO-31 cells assessed as total growth inhibition measured after 48 hrs by sulforhodamine B assay

BT-549 = assay: cells; assay type: functional; details: Homo sapiens, time 48 hrs
Description: Growth inhibition of human BT-549 cells measured after 48 hrs by sulforhodamine B assay

OVCAR-5 [9] = assay: cells; assay type: functional; details: Homo sapiens, time 48 hrs
Description: Cytostatic activity against human OVCAR-5 cells assessed as total growth inhibition measured after 48 hrs by sulforhodamine B assay

SF-539 [10] = assay: cells; assay type: functional; details: Homo sapiens, time 48 hrs
Description: Cytostatic activity against human SF-539 cells assessed as total growth inhibition measured after 48 hrs by sulforhodamine B assay

SNB-19 [11] = assay: cells; assay type: functional; details: Homo sapiens, time 48 hrs
Description: Cytostatic activity against human SNB-19 cells assessed as total growth inhibition measured after 48 hrs by sulforhodamine B assay

SK-OV-3 = assay: cells; assay type: functional; details: Homo sapiens, time 48 hrs
Description: Cytostatic activity against human SK-OV-3 cells assessed as total growth inhibition measured after 48 hrs by sulforhodamine B assay

SNB-75 = assay: cells; assay type: functional; details: Homo sapiens, time 48 hrs
Description: Growth inhibition of human SNB-75 cells measured after 48 hrs by sulforhodamine B assay

Malme-3M [12] = assay: cells; details: Homo sapiens, 48 h, read-out: LC50
Description: Cytotoxicity activity against human Malme-3M cells assessed as reduction in cell growth measured after 48 hrs by sulforhodamine B assay

HOP-62 [13] = assay: cells; assay type: functional; details: Homo sapiens, time 48 hrs; remark: listed apart in the source
Description: Growth inhibition of human HOP-62 cells measured after 48 hrs by sulforhodamine B assay

SF-295 [14] = assay: cells; assay type: functional; details: Homo sapiens, time 48 hrs
Description: Cytostatic activity against human SF-295 cells assessed as total growth inhibition measured after 48 hrs by sulforhodamine B assay

MCF7 [15] = assay: cells; assay type: functional; details: Homo sapiens, time 48 hrs
Description: Cytostatic activity against human MCF7 cells assessed as total growth inhibition measured after 48 hrs by sulforhodamine B assay

CCRF-CEM = assay: cells; assay type: functional; details: Homo sapiens, time 48 hrs
Description: Growth inhibition of human CCRF-CEM cells measured after 48 hrs by sulforhodamine B assay

Malme-3M [16] = assay: cells; assay type: functional; details: Homo sapiens, time 48 hrs
IGROV-1 = assay: cells; assay type: functional; details: Homo sapiens, time 48 hrs
Description: Growth inhibition of human IGROV-1 cells measured after 48 hrs by sulforhodamine B assay

SF-268 = assay: cells; assay type: functional; details: Homo sapiens, time 48 hrs
Description: Cytostatic activity against human SF-268 cells assessed as total growth inhibition measured after 48 hrs by sulforhodamine B assay

U-251 = assay: cells; assay type: functional; details: Homo sapiens, time 48 hrs
Description: Growth inhibition of human U-251 cells measured after 48 hrs by sulforhodamine B assay

HCT-116 = assay: cells; details: Homo sapiens, HCT-116, 48 h, read-out: LC50
Description: Cytotoxicity activity against human HCT-116 cells assessed as reduction in cell growth measured after 48 hrs by sulforhodamine B assay

CAKI-1 [17] = assay: cells; assay type: functional; details: Homo sapiens, time 48 hrs
Description: Growth inhibition of human CAKI-1 cells measured after 48 hrs by sulforhodamine B assay

UACC-257 = assay: cells; assay type: functional; details: Homo sapiens, time 48 hrs
Description: Cytostatic activity against human UACC-257 cells assessed as total growth inhibition measured after 48 hrs by sulforhodamine B assay

EKVX [18] = assay: cells; details: Homo sapiens, 48 h, read-out: LC50
Description: Cytotoxicity activity against human EKVX cells assessed as reduction in cell growth measured after 48 hrs by sulforhodamine B assay

CAKI-1 [19] = assay: cells; details: Homo sapiens, CAKI-1, 48 h, read-out: LC50
Description: Cytotoxicity activity against human CAKI-1 cells assessed as reduction in cell growth measured after 48 hrs by sulforhodamine B assay

SN12C = assay: cells; assay type: functional; details: Homo sapiens, time 48 hrs
Description: Cytostatic activity against human SN12C cells assessed as total growth inhibition measured after 48 hrs by sulforhodamine B assay

HCC 2998 = assay: cells; details: Homo sapiens, HCC 2998, 48 h, read-out: LC50
Description: Cytotoxicity activity against human HCC 2998 cells assessed as reduction in cell growth measured after 48 hrs by sulforhodamine B assay

M14 = assay: cells; assay type: functional; details: Homo sapiens, time 48 hrs
Description: Growth inhibition of human M14 cells measured after 48 hrs by sulforhodamine B assay

Carbonic anhydrase 12 = Carbonic anhydrase 12 (Homo sapiens, UniProt O43570)
Sequence of Carbonic anhydrase 12 (O43570 whole entry): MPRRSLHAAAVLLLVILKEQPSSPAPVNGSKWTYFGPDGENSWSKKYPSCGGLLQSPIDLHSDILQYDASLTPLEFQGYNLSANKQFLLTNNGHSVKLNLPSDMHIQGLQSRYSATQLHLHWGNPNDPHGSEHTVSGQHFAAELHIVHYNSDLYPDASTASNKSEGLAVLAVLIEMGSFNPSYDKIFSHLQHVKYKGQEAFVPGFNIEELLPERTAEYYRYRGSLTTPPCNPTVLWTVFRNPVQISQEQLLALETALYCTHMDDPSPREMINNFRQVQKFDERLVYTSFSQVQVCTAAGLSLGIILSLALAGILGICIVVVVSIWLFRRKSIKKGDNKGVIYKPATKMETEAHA
Description: Inhibition of human carbonic anhydrase 12 preincubated for 15 mins followed by substrate addition and measured after 30 mins by spectrophotometric method

SNB-19 [20] = assay: cells; details: Homo sapiens, SNB-19, 48 h, read-out: LC50
Description: Cytotoxicity activity against human SNB-19 cells assessed as reduction in cell growth measured after 48 hrs by sulforhodamine B assay

DU-145 [21] = assay: cells; assay type: functional; details: Homo sapiens, time 48 hrs
Description: Growth inhibition of human DU-145 cells measured after 48 hrs by sulforhodamine B assay

KM12 = assay: cells; details: Homo sapiens, KM12, 48 h, read-out: LC50
Description: Cytotoxicity activity against human KM12 cells assessed as reduction in cell growth measured after 48 hrs by sulforhodamine B assay

786-0 = assay: cells; details: Homo sapiens, 786-0, 48 h, read-out: LC50
Description: Cytotoxicity activity against human 786-0 cells assessed as reduction in cell growth measured after 48 hrs by sulforhodamine B assay

NCI-H522 = assay: cells; details: Homo sapiens, NCI-H522, 48 h, read-out: LC50
Description: Cytotoxicity activity against human NCI-H522 cells assessed as reduction in cell growth measured after 48 hrs by sulforhodamine B assay

TK-10 = assay: cells; details: Homo sapiens, TK-10, 48 h, read-out: LC50
Description: Cytotoxicity activity against human TK-10 cells assessed as reduction in cell growth measured after 48 hrs by sulforhodamine B assay

SF-539 [22] = assay: cells; details: Homo sapiens, SF-539, 48 h, read-out: LC50
Description: Cytotoxicity activity against human SF-539 cells assessed as reduction in cell growth measured after 48 hrs by sulforhodamine B assay

DU-145 [23] = assay: cells; assay type: functional; details: Homo sapiens, time 48 hrs; remark: listed apart in the source
Description: Cytostatic activity against human DU-145 cells assessed as total growth inhibition measured after 48 hrs by sulforhodamine B assay

PC-3 = assay: cells; assay type: functional; details: Homo sapiens, time 48 hrs
Description: Growth inhibition of human PC-3 cells measured after 48 hrs by sulforhodamine B assay

HOP-62 [24] = assay: cells; details: Homo sapiens, HOP-62, 48 h, read-out: LC50
Description: Cytotoxicity activity against human HOP-62 cells assessed as reduction in cell growth measured after 48 hrs by sulforhodamine B assay

MDA-MB-231 = assay: cells; assay type: functional; details: Homo sapiens, time 48 hrs
Description: Growth inhibition of human MDA-MB-231 cells measured after 48 hrs by sulforhodamine B assay

RXF 393 = assay: cells; assay type: functional; details: Homo sapiens, time 48 hrs
Description: Growth inhibition of human RXF 393 cells measured after 48 hrs by sulforhodamine B assay

MDA-MB-435 = assay: cells; assay type: functional; details: Homo sapiens, time 48 hrs
Description: Cytostatic activity against human MDA-MB-435 cells assessed as total growth inhibition measured after 48 hrs by sulforhodamine B assay

SF-295 [25] = assay: cells; assay type: functional; details: Homo sapiens, time 48 hrs; remark: listed apart in the source
Description: Growth inhibition of human SF-295 cells measured after 48 hrs by sulforhodamine B assay

## CCOC(=O)c1ccc(N/N=C/c2cn(-c3ccc(S(N)(=O)=O)cc3)nc2-c2ccc(C)cc2)cc1
SK-MEL-28
  GI50: 4.5 µM
UO-31 [1]
  CC50: > 100 µM
HL-60(TB)
  GI50: 3.05 µM
T47D
  CC50: > 100 µM
MCF7 [2]
  CC50: > 100 µM
OVCAR-5 [3]
  CC50: 63.6 µM
MOLT-4
  TGI: 11.5 µM
NCI/ADR-RES
  CC50: > 100 µM
HCT-15
  GI50: 1.87 µM
HOP-62 [4]
  TGI: 6.55 µM
EKVX [5]
  TGI: 3.17 µM
HOP-92 [6]
  CC50: > 100 µM
HOP-92 [7]
  TGI: 2.79 µM
UO-31 [8]
  TGI: 14.8 µM
BT-549
  GI50: 10.8 µM
OVCAR-5 [9]
  TGI: 20 µM
SF-539 [10]
  TGI: 8.03 µM
SNB-19 [11]
  TGI: 28.1 µM
SK-OV-3
  TGI: > 100 µM
SNB-75
  GI50: 10.1 µM
Malme-3M [12]
  CC50: 62.5 µM
HOP-62 [13]
  GI50: 6.55 µM
SF-295 [14]
  TGI: 24.8 µM
MCF7 [15]
  TGI: 7.77 µM
CCRF-CEM
  GI50: 3.82 µM
Malme-3M [16]
  GI50: 7.32 µM
IGROV-1
  GI50: 5.13 µM
SF-268
  TGI: 34.2 µM
U-251
  GI50: 4.23 µM
HCT-116
  CC50: 54.2 µM
CAKI-1 [17]
  GI50: 2.07 µM
UACC-257
  TGI: 37 µM
EKVX [18]
  CC50: > 100 µM
CAKI-1 [19]
  CC50: > 100 µM
SN12C
  TGI: 58.6 µM
HCC 2998
  CC50: 8.71 µM
M14
  GI50: 1.75 µM
Carbonic anhydrase 12
  IC50: 0.155 µM
SNB-19 [20]
  CC50: > 100 µM
DU-145 [21]
  GI50: 5.06 µM
KM12
  CC50: 10.6 µM
786-0
  CC50: 68 µM
NCI-H522
  CC50: > 100 µM
TK-10
  CC50: > 100 µM
SF-539 [22]
  CC50: 35 µM
DU-145 [23]
  TGI: 24.4 µM
PC-3
  GI50: 3.13 µM
HOP-62 [24]
  CC50: > 100 µM
MDA-MB-231
  GI50: 2.56 µM
RXF 393
  GI50: 1.97 µM
MDA-MB-435
  TGI: 8.96 µM
SF-295 [25]
  GI50: 6.92 µM
